Reference: patent US20150352197A1, “PEPTIDE” (Apitope International NV, priority 2013, published 2015)
Ends that are not written are not given here.

Legend:
[1] = target: T1, HLA-DRB1*1501 (Homo sapiens, UniProt P01903+P01911); experiment: Antigen processing independent presentation system: fixed MGAR cells plus peptide-specific T cell hybridomas, IL-2 ELISA; assay type: cell-based
T1 construct: human cell line expressing HLA-DRB1*1501; host or cells: MGAR cells (human cell line), fixed with paraformaldehyde or fresh
Procedure: 100 μl of hybridoma cells were cultured with 5×10^4 MGAR cells (human cell line expressing HLA-DRB1*1501, Health Protection Agency Culture Collections, Salisbury, UK) in wells of a flat bottom 96-well plate. 50 μl complete RPMI-10% FCS containing a long peptide at 10 μg/ml or the same volume of DMSO (diluent of the peptide) was added to the wells. After 48 h, 120 μl of supernatant was removed and a mouse IL-2 ELISA (Enzyme-linked immunosorbent assay) performed. Clones that produce IL-2 recognise the antigen used. The remaining supernatants were frozen at −20° C.
96 well plates (Immunosorb 96 well, Nunc, Roskilde, Denmark) were coated with 50 μl/well purified rat anti-mouse IL-2 capture Ab (BD Biosciences, Oxford, UK), diluted 1:250 in carbonate buffer (3.56 g Na2CO3 (Sigma-Aldrich, Saint Louis, Mass.), 8.4 g NaHCO3 (Fisher Scientific, Loughborough, UK), 1 L elgastat water; pH 9.5) and incubated overnight at 4° C. After 2 washes in PBS-Tween (1 L 10× PBS, 9 L distilled water, 0.5 ml Tween (Sigma-Aldrich, Saint Louis, Mass.)), […] of PBS-10% FCS were added and incubated at RT for 1 hour. After 3 washes in PBS-Tween, 50 μl of supernatant or IL-2 standard (BD Biosciences, Oxford, UK) dilutions (in PBS-10% FCS) were added to the wells and incubated 2 h at RT. After 4 washes in PBS-Tween (Sigma-Aldrich, Saint Louis, Mass.), 50 μl/well of biotin rat anti-mouse IL2 (BD Biosciences, Oxford, UK) diluted 1:1000 in 10% FCS/PBS was added and incubated for 1 h at RT. After 4 washes, 50 μl/well extravidin peroxidase (Sigma-Aldrich, Saint Louis, Mass.) diluted 1:1000 in PBS was added and incubated 30 min at RT. After 4 washes, […] of substrate solution* was added and incubated at RT until a clear colour change was seen. The reaction was stopped using 50 μl/well 2M H2SO4 (BDH, Poole, UK) and plates were read at 450 nm (550 nm ref) with an ELISA reader (SpectraMax Pro, Molecular Device, Sunnyvale, Calif.). *Substrate solution: 10 ml phosphate-citrate buffer 0.1M (5.14 ml 0.2M Na2HPO4 (BDH, Poole, UK), 4.86 ml 0.1M citrate (Sigma), 10 ml elgastat water), 0.1 ml of TMB (defrost 3,3′,5,5′-Tetramethylbenzidine at 10 mg/ml in DMSO, Sigma-Aldrich, Saint Louis, Mass.), 6 μl of hydrogen peroxide (Sigma-Aldrich, Saint Louis, Mass.).
The specific clones were then tested for their responses to the 15-mer peptides (POP-1 to POP-12) with fixed or not fixed MGAR cells. For this purpose, 1×10^5 cells from the individual clones are cultured with 5×10^4 fixed or fresh MGAR cells in a 96-well flat bottom plate. […] After 48 h in culture, 120 μl of supernatant was harvested and analysed by ELISA to assess IL-2 production.

[2] = test system: splenocytes and lymph node cells; experiment: In vitro proliferation assay for immunogenicity of the long peptides; assay type: cell-based, HLA-DRB1*1501 transgenic mice; conditions: HLA-DRB1*1501 mice, FIG. 1
[3] = test system: HLA-DRB1*1501 transgenic mice; experiment: EAE induction by priming with long peptide; assay type: in vivo; conditions: long peptides, HLA-DRB1*1501 mice, FIG. 1
Procedure: For each peptide, in silico studies were carried out to predict DR2 (HLA-DRB1*1501) binding capacity, and in vitro (proliferation assay) and in vivo (EAE induction) studies were carried out to investigate response.
HLA-DRB1*1501 transgenic mice were injected with 100 μl containing 100 μg of long peptide in PBS (Lonza, Verviers, Belgium) or PBS alone, and with Complete Freund Adjuvant (CFA; BD Difco, Oxford, UK) with 4 mg/ml Mycobacterium tuberculosis (MTb, BD Difco, Oxford, UK) subcutaneously at the base of the tail. For EAE study, the mice were injected with 200 ng of pertussis toxin at the same time as the priming and 2 days after. The mice were then followed, weight and scored for disease every day.

[4] = test system: splenocytes (SPL) and lymph node cells (LNC); experiment: Ex vivo tolerance assay: apitope pre-treatment, priming with long peptide, then recall proliferation and cytokine production; assay type: in vivo, HLA-DRB1*1501 mice
[5] = 15-mers spanning HEAL-26, HEAL-26 specific hybridomas from DR2 mice
[6] = LNC (lymph node) of pre-treated mice
[7] = SPL (spleen) of pre-treated mice

| identification as apitope [1, 5] | Substance | response in the in vitro study (proliferation assay) [2] | response in the in vivo study (EAE induction) [3] | IL-17 production ([4]; LNC of pre-treated mice) | proliferation (3H-thymidine incorporation) [4, 6] | proliferation (3H-thymidine incorporation) [4, 7] | IL-17 production ([4]; SPL of pre-treated mice) | other results |
| --- | --- | --- | --- | --- | --- | --- | --- | --- |
| identified as apitopes | EKLIETYFSKNYQDY [POP-8, 15-mer overlapping peptide spanning HEAL-26] |  |  |  |  |  |  |  |
|  | GVLPWNAFPGKVCGSNLLSICKTAEFQM-NH2 (cysteine pairing not given here) [GVLP-28, long peptide from a hydrophilic domain of PLP, residues 207-234] | respond | respond | significant inhibition |  |  |  | stimulation index of LNC proliferation ([4]; LNC of pre-treated mice): decrease |
|  | HEALTGTEKLIETYFSKNYQDYEYLI-NH2 [HEAL-26, long peptide from a hydrophilic domain of PLP, residues 36-61] | respond | respond | decrease | decrease | decrease | decrease | IL-5 production ([4]; pre-treated mice, cell population not specified): increase |
| identified as apitopes | LTGTEKLIETYFSKN [POP-4, 15-mer overlapping peptide spanning HEAL-26] |  |  | significant decrease | inhibition | inhibition | significant decrease | IFN-γ production ([4]; LNC of pre-treated mice): significant decrease; TNF-α production ([4]; LNC of pre-treated mice): significant decrease; IFN-γ production ([4]; SPL of pre-treated mice): significant decrease; TNF-α production ([4]; SPL of pre-treated mice): significant decrease |
| identified as apitopes | TEKLIETYFSKNYQD [POP-7, 15-mer overlapping peptide spanning HEAL-26] |  |  |  |  |  |  |  |
|  | TTCQSIAFPSKTSAS [POP-15, 15-mer overlapping peptide spanning TWTT-28] |  |  | significant inhibition | significant inhibition | no difference | less | GM-CSF production ([4]; LNC of pre-treated mice): significant inhibition; IFN-γ production ([4]; LNC of pre-treated mice): significant inhibition; cytokine production ([4]; LNC of pre-treated mice): inhibit very well; GM-CSF production ([4]; SPL of pre-treated mice): less; IFN-γ production ([4]; SPL of pre-treated mice): less; cytokine production ([4]; SPL of pre-treated mice): inhibit very well |
|  | TWTTCQSIAFPSKTSASIGSLCADARMY-NH2 (cysteine pairing not given here) [TWTT-28, long peptide from a hydrophilic domain of PLP, residues 179-206] | respond | respond |  | inhibit very well | inhibit very well |  | cytokine production ([4]; LNC of pre-treated mice): inhibit very well; cytokine production ([4]; SPL of pre-treated mice): inhibit very well |
|  | VLPWNAFPGKVCGSN [POP-22, 15-mer overlapping peptide spanning GVLP-28] |  |  | significant inhibition |  |  |  | identification as apitope ([1]; 15-mers spanning GVLP-28, TWTT-28 specific hybridomas from DR2 mice (so in the source)): identified as an apitope; stimulation index of LNC proliferation ([4]; LNC of pre-treated mice): decrease |
